The values below come from patent US20080280933A1, “BENZIMIDAZOLYL COMPOUNDS” (priority 2006, published 2008).

Structures are written as SMILES. Some results are limits rather than exact numbers.

A word on the EC50: it is the concentration giving half of the maximal effect.

The target in this experiment is T1, mGluR2 receptor (metabotropic glutamate receptor 2) (Homo sapiens, UniProt Q14416).
T1 construct: expressed in transfected cells
The experiment can be described thus: mGluR2 Potentiator Screen, FLIPR, EC10-EC20 glutamate challenge. In kind it is cell-based. Conditions: read-out: EC50. In short, it runs like this:
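HEK cells stably co-expressing mGluR2 and Gα15, kept glutamine-free overnight, were loaded with Fluo-4 plus probenecid and GPT/pyruvate. Compounds (top 10 μM) were added ≥30 min before an EC10–EC20 glutamate challenge. Peak FLIPR fluorescence ratios were curve-fitted, excluding points above maximal effect, with maxima from on-plate standards.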

T1 sequence (Q14416 19-872, species assumed): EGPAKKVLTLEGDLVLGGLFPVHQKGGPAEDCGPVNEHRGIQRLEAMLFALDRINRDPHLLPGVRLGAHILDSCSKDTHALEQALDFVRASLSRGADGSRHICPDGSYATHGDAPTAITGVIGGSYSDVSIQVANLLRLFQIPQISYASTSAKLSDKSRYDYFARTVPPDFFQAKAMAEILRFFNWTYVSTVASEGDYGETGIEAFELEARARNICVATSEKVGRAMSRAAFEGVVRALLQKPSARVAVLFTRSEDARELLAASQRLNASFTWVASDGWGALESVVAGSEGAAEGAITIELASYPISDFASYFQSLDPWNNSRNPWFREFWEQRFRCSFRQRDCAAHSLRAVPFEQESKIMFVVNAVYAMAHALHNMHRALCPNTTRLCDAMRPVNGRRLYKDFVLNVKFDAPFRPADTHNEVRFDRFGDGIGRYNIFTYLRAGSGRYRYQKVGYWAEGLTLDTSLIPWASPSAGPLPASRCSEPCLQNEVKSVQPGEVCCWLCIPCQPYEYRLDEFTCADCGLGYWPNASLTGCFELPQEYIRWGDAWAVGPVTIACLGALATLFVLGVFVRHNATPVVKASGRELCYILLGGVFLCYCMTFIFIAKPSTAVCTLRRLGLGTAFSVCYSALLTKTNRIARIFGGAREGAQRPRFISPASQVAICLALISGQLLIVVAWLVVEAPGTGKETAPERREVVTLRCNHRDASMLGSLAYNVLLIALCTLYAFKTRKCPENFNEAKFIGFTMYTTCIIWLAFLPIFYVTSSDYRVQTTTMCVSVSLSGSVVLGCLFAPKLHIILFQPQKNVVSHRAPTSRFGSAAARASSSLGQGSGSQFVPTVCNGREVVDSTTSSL

As for `Cc1ccc2c(c1)nc(CN1CCC(c3ccccc3F)CC1)n2C` [compound 273], the half-maximal effective concentration (EC50) is 79.7 nM.

As for `Cn1c(CN2CCC(c3ccccc3F)CC2)nc2ccc(Br)cc21` [compound 274], the concentration for a half-maximal effect (EC50) amounted to 318 nM.

`COc1ccc(-c2ccc3nc(CN4CCC(c5ccccc5F)CC4)n(C)c3c2)cn1` [compound 277]: the EC50 was found to be 44.6 nM.

Take `Cn1c(CN2CCC(c3ccccc3F)CC2)nc2cc(-c3ccccc3)ccc21` [compound 280]: the EC50 is 176 nM.

As for `COc1ccccc1C1CCN(Cc2nc3cc(N)ccc3n2C)CC1` [compound 281], the EC50 is 1510 nM.

For `COc1ccccc1C1CCN(Cc2nc3cc(C)ccc3n2C)CC1` [compound 282], the EC50 was 41.6 nM.

As for `COc1ccccc1C1CCN(Cc2nc3cc(C#N)ccc3n2C)CC1` [compound 283], the EC50 was found to be 90.8 nM.

Take `COc1ccccc1C1CCN(Cc2nc3cc(F)ccc3n2C)CC1` [compound 284]: the EC50 was determined as 39.4 nM.

For `COc1ccccc1C1CCN(Cc2nc3cc(Cl)ccc3n2C)CC1` [compound 285], the EC50 was determined as 49.3 nM.

With `COCn1c(CN2CCC(c3ccccc3F)CC2)nc2ccccc21` [compound 286], the EC50 was 4620 nM.

With `COCn1c(CN2CCC(c3ccc(C(F)(F)F)cc3)CC2)nc2ccccc21` [compound 287], the EC50 was found to be 1900 nM.

Take `Cn1c(CN2CCC(c3ccccc3)CCC2=O)nc2ccccc21` (stereo not shown) [compound 289]: the EC50 was above 9880 nM.

Take `Cn1c(CN2CCC(c3ccc(C(F)(F)F)cc3)CCC2=O)nc2ccccc21` (stereo not shown) [compound 290]: the EC50 was found to be 5720 nM.

`COc1ccccc1C1CCN(Cc2nc3ccccc3n2C)CC1C` (stereo not shown) [compound 292]: the EC50 was found to be 143 nM.

For `COc1ccccc1C1CCN(Cc2nc3cc(F)c(F)cc3n2C)CC1C` (stereo not shown) [compound 293], the EC50 turned out to be 850 nM.

Turning to `COc1ccccc1C1CCN(Cc2nc3ccccc3n2CF)CC1C` (stereo not shown) [compound 294], the EC50 stood at 734 nM.

Regarding `OCCn1c(CN2CCC(c3ccccc3F)CC2)nc2ccccc21` [compound 295], the EC50 amounted to 1740 nM.

Turning to `Cn1c(CN2CC[C@@H]3c4c(Br)ccc(Cl)c4CC[C@H]3C2)nc2ccccc21` [compound 299], the EC50 worked out at 6120 nM.

For `COc1ccc(F)cc1C1CCN(Cc2nc3ccccc3n2C)CC1` [compound 300], the concentration giving a half-maximal response (EC50) amounted to 60.7 nM.

With `Cc1cccc2nc(CN3CCC(c4ccccc4F)CC3)n(C)c12` [compound 301], the 50% effective concentration (EC50) came to 42.3 nM.

`Cc1cc(C)cc(C2CCN(Cc3nc4ccccc4n3C)CC2)c1` [compound 302]: the EC50 was determined as 37.4 nM.

`Cn1c(CN2CCCC(c3ccc(C(F)(F)F)cc3)CC2)nc2ccccc21` (stereo not shown) [compound 303]: the EC50 stood at 868 nM.

With `COc1ccccc1C1CCCN(Cc2nc3ccccc3n2C)CC1` (stereo not shown) [compound 304], the EC50 came to 276 nM.

For `Cn1c(CN2CCCC(c3ccccc3)CC2)nc2ccccc21` (stereo not shown) [compound 305], the EC50 is 235 nM.

In the case of `Cn1c(CN2CCCC(c3ccccc3F)CC2)nc2ccccc21` (stereo not shown) [compound 306], the EC50 is 1590 nM.

As for `Cn1c(CN2CCC(c3ccccc3F)CC2)nc2cccc(C#N)c21` [compound 307], the EC50 came out at 31.4 nM.

Take `Cn1c(CN2CCC(c3ccccc3F)CC2)nc2cccc(-c3ccccc3)c21` [compound 308]: the 50% effective concentration (EC50) came out at 151 nM.

Consider `COc1ccc(-c2cccc3nc(CN4CCC(c5ccccc5F)CC4)n(C)c23)cn1` [compound 309], for which the EC50 came out at 112 nM.

Take `Cc1cc(F)ccc1C1CCN(Cc2nc3ccccc3n2C)CC1` [compound 310]: the EC50 worked out at 43.3 nM.

On to `Cn1c(CN2CCC(c3cc(F)ccc3F)CC2)nc2ccccc21` [compound 311], for which the EC50 turned out to be 16.1 nM.

Turning to `Cn1c(CN2CCC(c3ccccc3F)CC2)nc2cccc(Br)c21` [compound 312], the EC50 was found to be 60.1 nM.

As for `CC(O)c1ccccc1C1CCN(Cc2nc3ccccc3n2C)CC1` (stereo not shown) [compound 313], the 50% effective concentration (EC50) was determined as 361 nM.

In the case of `Cn1c(CN2CCC(c3ccc(C(F)(F)F)cc3)CC2)nc2c(F)cccc21` [compound 314], the EC50 stood at 43.8 nM.

Take `Cc1ccc(C2CCN(Cc3nc4ccccc4n3C)CC2)cc1C` [compound 315]: the EC50 was 308 nM.

Take `Cn1c(CN2CCC(c3ccc(C(F)(F)F)cc3)CC2)nc2cc(C#N)ccc21` [compound 317]: the EC50 was 90.7 nM.

Take `COc1ccc(C(F)(F)F)cc1C1CCN(Cc2nc3ccccc3n2C2CC2)CC1` [compound 318]: the EC50 is 4690 nM.

For `COc1ccc(C(F)(F)F)cc1C1CCN(Cc2nc3ccccc3n2CCF)CC1` [compound 319], the EC50 turned out to be 1650 nM.

`COCn1c(CN2CCC(c3cc(C(F)(F)F)ccc3OC)CC2)nc2ccccc21` [compound 320]: the EC50 came to 3800 nM.

Turning to `COc1ccc(C(F)(F)F)cc1C1CCN(Cc2nc3cc(F)c(F)cc3n2C)CC1` [compound 321], the EC50 came to 1510 nM.

For `COc1ccccc1[C@]1(C)CCN(Cc2nc3ccccc3n2C2CC2)C[C@@H]1C` [compound 322], the EC50 was 9930 nM.

For `COCCn1c(CN2CCC(c3cc(C(F)(F)F)ccc3OC)CC2)nc2ccccc21` [compound 323], the EC50 came out at 984 nM.

As for `COCCn1c(CN2CCC(c3cc(C(F)(F)F)ccc3F)CC2)nc2ccccc21` [compound 326], the EC50 is 263 nM.

On to `Fc1ccc(C(F)(F)F)cc1C1CCN(Cc2nc3ccccc3n2C2CC2)CC1` [compound 327], for which the half-maximal effective concentration (EC50) came out at 1980 nM.

Regarding `Cn1c(CN2CCC(c3cc(C(F)(F)F)ccc3F)CC2)nc2cc(F)c(F)cc21` [compound 328], the EC50 came to 463 nM.

In the case of `FCCn1c(CN2CCC(c3cc(C(F)(F)F)ccc3F)CC2)nc2ccccc21` [compound 329], the EC50 is 463 nM.

As for `COCn1c(CN2CCC(c3cc(C(F)(F)F)ccc3F)CC2)nc2ccccc21` [compound 330], the EC50 worked out at 969 nM.

Consider `Cn1c(CN2CCC(c3ccc(F)cc3)CC2)nc2cc(C#N)ccc21` [compound 331], for which the concentration for a half-maximal effect (EC50) was determined as 299 nM.

Regarding `COc1ccccc1C1(OC)CCN(Cc2nc3ccccc3n2C)CC1C` (stereo not shown) [compound 332], the EC50 was determined as 5220 nM.

For `COc1ccccc1C1(OC)CCN(Cc2nc3c(Br)cccc3n2C)CC1C` (stereo not shown) [compound 333], the EC50 came to 4760 nM.

`COc1ccccc1C1(OC)CCN(Cc2nc3ccccc3n2CF)CC1C` (stereo not shown) [compound 334]: the EC50 is above 7080 nM.

`COc1ccccc1C1(OC)CCN(Cc2nc3ccccc3n2CCF)CC1C` (stereo not shown) [compound 335]: the EC50 turned out to be 10400 nM.

As to `Cn1c(CN2CCC(c3ccc(OC(F)(F)F)cc3)CC2)nc2ccccc21` [compound 340], the EC50 came out at 200 nM.

For the compound `Cn1c(CN2CCC(c3ccc(C(F)(F)F)cc3)CC2)nc2cccc(F)c21` [compound 341], the EC50 was determined as 633 nM.

Turning to `Cn1c(CN2CCC(c3ccc(F)cc3)CC2)nc2cccc(F)c21` [compound 342], the 50% effective concentration (EC50) stood at 55.2 nM.

Turning to `COc1ccccc1C1CCN(Cc2nc3cccc(F)c3n2C)CC1` [compound 343], the EC50 is 16.6 nM.

`Cn1c(CN2CCC(c3ccccc3F)CC2)nc2cccc(F)c21` [compound 344]: the EC50 is 20.6 nM.

Regarding `Cn1c(CN2CCC(c3ccc(C(F)(F)F)cc3)CC2)nc2cc(Cl)ccc21` [compound 345], the EC50 came to 1600 nM.

As for `Cn1c(CN2CCC(c3cc(C(F)(F)F)cc(C(F)(F)F)c3)CC2)nc2ccccc21` [compound 348], the EC50 came to 201 nM.

With `COc1cc(C(F)(F)F)ccc1C1CCN(Cc2nc3cc(F)ccc3n2C)CC1` [compound 349], the EC50 stood at 34.9 nM.

As to `Cn1c(CN2CCC(c3ccc(C(F)(F)F)cc3)CC2)nc2cc(F)ccc21` [compound 350], the EC50 is 147 nM.

Turning to `Cn1c(CN2CCC(c3ccccc3F)CC2)nc2cc(F)ccc21` [compound 351], the EC50 was determined as 87.7 nM.

Take `Cn1c(CN2CCC(c3ccccc3F)CC2)nc2cc(F)ccc21` [compound 352]: the EC50 was 88.5 nM.

Turning to `Cn1c(CN2CCC(c3ccc(C(F)(F)F)cc3F)CC2)nc2cc(F)ccc21` [compound 353], the concentration giving a half-maximal response (EC50) was below 40.2 nM.

As for `COc1cc(C(F)(F)F)ccc1C1CCN(Cc2nc3ccccc3n2C)CC1` [compound 355], the EC50 worked out at 66.7 nM.

Take `COc1cc(C(F)(F)F)ccc1C1CCN(Cc2nc3c(Br)cccc3n2C)CC1` [compound 356]: the concentration giving a half-maximal response (EC50) came to 3900 nM.

As for `COc1cc(C(F)(F)F)ccc1C1CCN(Cc2nc3ccccc3n2CCF)CC1` [compound 357], the EC50 was 105 nM.

On to `COCn1c(CN2CCC(c3ccc(C(F)(F)F)cc3OC)CC2)nc2ccccc21` [compound 358], for which the EC50 amounted to 471 nM.

`COc1cc(C(F)(F)F)ccc1C1CCN(Cc2nc3ccccc3n2C2CC2)CC1` [compound 359]: the EC50 turned out to be 940 nM.

Take `COc1cc(C(F)(F)F)ccc1C1CCN(Cc2nc3cc(F)c(F)cc3n2C)CC1` [compound 360]: the 50% effective concentration (EC50) was found to be 266 nM.

For `Cn1c(CN2CCC(c3ccc(C(F)(F)F)cc3)CC2)nc2cc(C(F)(F)F)ccc21` [compound 362], the EC50 is 5010 nM.

`Cn1c(CN2CCC(c3ccc(C(F)(F)F)cc3)CC2)nc2cc(C(N)=O)ccc21` [compound 364]: the EC50 was determined as 498 nM.

Take `COCn1c(CN2CCC(c3ccc(F)cc3)CC2)nc2ccccc21` [compound 365]: the EC50 was 1670 nM.

On to `Cn1c(CN2CCC(c3ccc(F)cc3)CC2)nc2c(Br)cccc21` [compound 366], for which the EC50 is 2140 nM.

With `COCCn1c(CN2CCC(c3ccc(F)cc3)CC2)nc2ccccc21` [compound 367], the EC50 amounted to 905 nM.

With `Cn1c(CN2CCC(c3ccc(F)cc3)CC2)nc2cc(F)c(F)cc21` [compound 368], the EC50 came to 475 nM.

On to `Fc1ccc(C2CCN(Cc3nc4ccccc4n3C3CC3)CC2)cc1` [compound 369], for which the EC50 was found to be 1770 nM.

Consider `FCCn1c(CN2CCC(c3ccc(F)cc3)CC2)nc2ccccc21` [compound 370], for which the EC50 was found to be 582 nM.

In the case of `CC(C)Oc1ccccc1C1CCN(Cc2nc3cc(F)ccc3n2C)CC1` [compound 371], the EC50 stood at 692 nM.

Consider `Cn1c(CN2CCC(c3cc(Cl)ccc3F)CC2)nc2cc(F)ccc21` [compound 372], for which the EC50 came out at 308 nM.
